Test results published in US20100305076A1, “METHODS OF TREATMENT FOR ULCERATIVE COLITIS” (priority 2006, published 2010).

What was measured:
Assay type in all cases: in vivo, human
[1] = test system: moderate ulcerative colitis; assay: Individual subject examples: PGA score and rectal bleeding
Text: The subject takes two tablets of the pharmaceutical in the morning and two tablets in the evening such that about 4.8 g/day of 5-ASA is delivered. […] The four tablets are taken in the morning so that 4.8 g/day of 5-ASA is delivered.

[2] = Safety and tolerability in the phase III trials
Text: Data from subjects with mild to moderate UC are combined and analyzed from two phase III, multi-center, randomized, double-blind, controlled clinical trials of identical design assessing the safety and clinical efficacy of an increased dosage of 5-ASA.

[3] = test system: moderate ulcerative colitis; assay: Bayesian analysis of treatment success probability in men with moderate disease
Experimental: In addition, a Bayesian analysis is conducted to calculate the probability that treatment with the 4.8 g/day dose in men results in a higher success rate than treatment with the 2.4 g/day does. This type of analysis considers data from any previous studies conducted using either of the two dose levels. […] Using these prior distributions and Bayes analyses, the “posterior distribution” is calculated for each dose level based on the date obtained from previous studies.

[4] = test system: moderate ulcerative colitis; assay: Two phase III randomized double-blind trials: overall improvement (treatment success) from baseline at week 6; settings: for Overall improvement: all subjects with moderately active UC, Studies I and II
Text: Data from subjects with mild to moderate UC are combined and analyzed from two phase III, multi-center, randomized, double-blind, controlled clinical trials of identical design assessing the safety and clinical efficacy of an increased dosage of 5-ASA. The primary endpoint is the percentage of moderate UC subjects achieving overall improvement (i.e., treatment success) from baseline at week 6. This is defined as: (1) complete response (remission); complete resolution of signs and symptoms (stool frequency, rectal bleeding, Subject Functional Assessment (SFA) and sigmoidoscopy score) and a Physician's Global Assessment (PGA) of 0; or (2) partial response; improvement from baseline in the PGA score and improvement in at least one clinical assessment (stool frequency, rectal bleeding, SFA and sigmoidoscopy score) and no worsening in any of the other clinical assessments. […] Pre-specified subgroup analyses for fifty-four demographic and baseline characteristics are performed in subjects with moderately active disease (PGA score=2) to assess consistency of primary endpoint.

[5] = Example 6: person, two 1.2 g delayed-release tablets three times daily (7.2 g/day)
[6] = Example 5: person previously treated with steroids, four 1.2 g delayed-release tablets once daily (4.8 g/day)
[7] = Example 4: non-smoking man, oral, two 1.2 g tablets twice daily

SMILES: O=C(O)CCNC(=O)c1ccc(/N=N/c2ccc(O)c(C(=O)O)c2)cc1 [balsalazide, (E)-5-[[4-[[(2-carboxyethyl)amino]carbonyl]phenyl]azo]-2-hydroxybenzoic acid]
- Physician's Global Assessment (PGA) score [1, 5]: improves in comparison to baseline
- Rectal bleeding [1, 5]: reduced

SMILES: Nc1ccc(O)c(C(=O)O)c1 [mesalamine, 5-amino-2-hydroxybenzoic acid]
- Tolerability ([2]; 2.4 g/day (400 mg tablet)): well tolerated
- Tolerability / adverse events ([2]; 4.8 g/day (800 mg tablet), oral delayed-release): well tolerated with adverse events comparable to the 2.4 g/day (400 mg tablet) dose
- Safety profile of regimen ([2]; about 4.8 g/day vs 2.4 g/day regimen): comparable to that of the 2.4 g/day regimen
- Probability that 4.8 g/day results in a higher success rate than 2.4 g/day (Bayesian analysis) [3]: 99.97%
- Probability of a successful treatment outcome (Bayesian analysis) ([3]; 2.4 g/day): 47.2%
- Probability of a successful treatment outcome (Bayesian analysis) ([3]; 4.8 g/day): 74.7%
- Overall improvement ([4]; 2.4 g/day (400 mg tablet)): 58%
- Success Rate ([4]; 2.4 g/day, male, moderate disease, Study 1, primary analysis): 50.0%
- Success Rate ([4]; 2.4 g/day, male, moderate disease, Study 1, set-to-failure): 46.8%
- Success Rate ([4]; 2.4 g/day, male, moderate disease, Study 2, primary analysis): 48.8%
- Success Rate ([4]; 2.4 g/day, male, moderate disease, Study 2, set-to-failure): 47.7%
- Overall improvement at week 6 ([4]; 2.4 g/day, moderate UC, combined studies, female): 66%
- Overall improvement at week 6 ([4]; 2.4 g/day, moderate UC, combined studies, left-sided colitis): 56%
- Overall improvement at week 6 ([4]; 2.4 g/day, moderate UC, combined studies, male): 50%
- Overall improvement at week 6 ([4]; 2.4 g/day, moderate UC, combined studies, pancolitis): 55%
- Overall improvement at week 6 ([4]; 2.4 g/day, moderate UC, combined studies, previous steroid use: no): 62%
- Overall improvement at week 6 ([4]; 2.4 g/day, moderate UC, combined studies, previous steroid use: yes): 52%
- Overall improvement at week 6 ([4]; 2.4 g/day, moderate UC, combined studies, proctitis): 71%
- Overall improvement at week 6 ([4]; 2.4 g/day, moderate UC, combined studies, proctosigmoiditis): 56%
- Success Rate ([4]; 2.4 g/day, moderate female, bowel and blood and sig scores at least 2, Study 2, primary endpoint, week 6): 27%
- Success Rate ([4]; 2.4 g/day, moderate female, bowel and blood and sig scores at least 2, Study 2, set to failure, week 6): 27%
- Success Rate ([4]; 2.4 g/day, moderate female, bowel and blood and sig scores at least 2, combined studies, primary endpoint, week 6): 51%
- Success Rate ([4]; 2.4 g/day, moderate female, bowel and blood and sig scores at least 2, combined studies, set to failure, week 6): 49%
- Success Rate ([4]; 2.4 g/day, moderate female, steroid or (bowel and blood and sig), Study 1, primary endpoint, week 6): 55%
- Success Rate ([4]; 2.4 g/day, moderate female, steroid or (bowel and blood and sig), Study 1, set to failure, week 6): 51%
- Success Rate ([4]; 2.4 g/day, moderate female, steroid or (bowel and blood and sig), Study 2, primary endpoint, week 6): 33%
- Success Rate ([4]; 2.4 g/day, moderate female, steroid or (bowel and blood and sig), Study 2, set to failure, week 6): 31%
- Success Rate ([4]; 2.4 g/day, moderate female, steroid or (bowel and blood and sig), combined studies, primary endpoint, week 6): 46%
- Success Rate ([4]; 2.4 g/day, moderate female, steroid or (bowel and blood and sig), combined studies, set to failure, week 6): 43%
- Success Rate ([4]; 2.4 g/day, moderate female, steroid use, Study 1, primary endpoint, week 6): 43%
- Success Rate ([4]; 2.4 g/day, moderate female, steroid use, Study 1, set to failure, week 6): 41%
- Success Rate ([4]; 2.4 g/day, moderate female, steroid use, Study 2, primary endpoint, week 6): 38%
- Success Rate ([4]; 2.4 g/day, moderate female, steroid use, Study 2, set to failure, week 6): 33%
- Success Rate ([4]; 2.4 g/day, moderate female, steroid use, combined studies, primary endpoint, week 6): 41%
- Success Rate ([4]; 2.4 g/day, moderate female, steroid use, combined studies, set to failure, week 6): 38%
- Actual response rate ([4]; 2.4 g/day, women, moderate disease): exceeded 60%
- Overall improvement ([4]; 4.8 g/day (800 mg tablet)): 72%
- Success Rate ([4]; 4.8 g/day, female, moderate disease, Study 2, set-to-failure): 59.1%
- Success Rate ([4]; 4.8 g/day, male, moderate disease, Study 1, primary analysis): 75.5%
- Success Rate ([4]; 4.8 g/day, male, moderate disease, Study 1, set-to-failure): 74.1%
- Success Rate ([4]; 4.8 g/day, male, moderate disease, Study 2, primary analysis): 76.3%
- Success Rate ([4]; 4.8 g/day, male, moderate disease, Study 2, set-to-failure): 72.5%
- Overall improvement at week 6 ([4]; 4.8 g/day, moderate UC, combined studies, female): 69%
- Overall improvement at week 6 ([4]; 4.8 g/day, moderate UC, combined studies, left-sided colitis): 71%
- Overall improvement at week 6 ([4]; 4.8 g/day, moderate UC, combined studies, male): 76%
- Overall improvement at week 6 ([4]; 4.8 g/day, moderate UC, combined studies, pancolitis): 71%
- Overall improvement at week 6 ([4]; 4.8 g/day, moderate UC, combined studies, previous steroid use: no): 69%
- Overall improvement at week 6 ([4]; 4.8 g/day, moderate UC, combined studies, previous steroid use: yes): 79%
- Overall improvement at week 6 ([4]; 4.8 g/day, moderate UC, combined studies, proctitis): 77%
- Overall improvement at week 6 ([4]; 4.8 g/day, moderate UC, combined studies, proctosigmoiditis): 71%
- Success Rate ([4]; 4.8 g/day, moderate female, bowel and blood and sig scores at least 2, Study 1, primary endpoint, week 6): 81%
- Success Rate ([4]; 4.8 g/day, moderate female, bowel and blood and sig scores at least 2, Study 2, set to failure, week 6): 53%
- Success Rate ([4]; 4.8 g/day, moderate female, bowel and blood and sig scores at least 2, combined studies, primary endpoint, week 6): 76%
- Success Rate ([4]; 4.8 g/day, moderate female, steroid or (bowel and blood and sig), Study 1, primary endpoint, week 6): 75%
- Success Rate ([4]; 4.8 g/day, moderate female, steroid or (bowel and blood and sig), Study 2, primary endpoint, week 6): 73%
- Success Rate ([4]; 4.8 g/day, moderate female, steroid or (bowel and blood and sig), combined studies, primary endpoint, week 6): 74%
- Success Rate ([4]; 4.8 g/day, moderate female, steroid or (bowel and blood and sig), combined studies, set to failure, week 6): about 65%
- Success Rate ([4]; 4.8 g/day, moderate female, steroid use, Study 1, primary endpoint, week 6): 79%
- Success Rate ([4]; 4.8 g/day, moderate female, steroid use, Study 1, set to failure, week 6): 73%
- Success Rate ([4]; 4.8 g/day, moderate female, steroid use, Study 2, set to failure, week 6): 58%
- Success Rate ([4]; 4.8 g/day, moderate female, steroid use, combined studies, primary endpoint, week 6): 73%
- Difference in Proportions ([4]; 4.8 vs 2.4 g/day, female, moderate disease, Study 1, primary analysis): 2.3%
- Difference in Proportions ([4]; 4.8 vs 2.4 g/day, female, moderate disease, Study 1, set-to-failure): 3.0%
- Difference in Proportions ([4]; 4.8 vs 2.4 g/day, female, moderate disease, Study 2, primary analysis): 4.4%
- Difference in Proportions ([4]; 4.8 vs 2.4 g/day, female, moderate disease, Study 2, set-to-failure): −2.4%
- Difference in Proportions ([4]; 4.8 vs 2.4 g/day, male, moderate disease, Study 1, primary analysis): 25.5%
- Difference in Proportions ([4]; 4.8 vs 2.4 g/day, male, moderate disease, Study 1, set-to-failure): 27.3%
- Difference in Proportions ([4]; 4.8 vs 2.4 g/day, male, moderate disease, Study 2, primary analysis): 27.5%
- Difference in Proportions ([4]; 4.8 vs 2.4 g/day, male, moderate disease, Study 2, set-to-failure): 24.8%
- Observed differences in success rate between treatment groups ([4]; 4.8 vs 2.4 g/day, men, moderate disease): approximately 25%
- Difference in Proportions ([4]; 4.8 vs 2.4 g/day, women, moderate disease, bowel and blood and sigmoidoscopy scores each ≧2, Study 1, primary endpoint): 14%
- Difference in Proportions ([4]; 4.8 vs 2.4 g/day, women, moderate disease, bowel and blood and sigmoidoscopy scores each ≧2, Study 2, primary endpoint): 42%
- Difference in Proportions ([4]; 4.8 vs 2.4 g/day, women, moderate disease, history of steroid use or bowel and blood and sigmoidoscopy each ≧2, Study 1, primary endpoint): 20%
- Difference in Proportions ([4]; 4.8 vs 2.4 g/day, women, moderate disease, history of steroid use or bowel and blood and sigmoidoscopy each ≧2, Study 2, primary endpoint): 40%
- Difference in Proportions ([4]; 4.8 vs 2.4 g/day, women, moderate disease, history of steroid use, Study 1, primary endpoint): 36%
- Difference in Proportions ([4]; 4.8 vs 2.4 g/day, women, moderate disease, history of steroid use, Study 2, primary endpoint): 27%
- Benefit of 4.8 g/day versus 2.4 g/day therapy (FIG. 3) ([4]; by baseline disease activity, subjects having moderate UC): increased therapeutic benefits
- Benefit of 4.8 g/day versus 2.4 g/day therapy (FIG. 2) ([4]; former steroid users, moderate UC): increased therapeutic benefits
- 4.8 g/day group versus 2.4 g/day group across pre-specified subgroups ([4]; point estimates and 95% confidence intervals of differences, 54 subgroups): consistently superior
- Benefit of 4.8 g/day versus 2.4 g/day therapy (FIG. 1) ([4]; subjects under about 65 years of age, Caucasians, non-smokers, moderate UC): increased benefit
- Physician's Global Assessment (PGA) score [1, 6]: improves in comparison to baseline
- Rectal bleeding [1, 6]: reduced

SMILES: O=C(O)c1cc(N=Nc2ccc(O)c(C(=O)O)c2)ccc1O [olsalazine, 3,3′-dicarboxy-4,4′-dihydroxyazobenzene]
- Physician's Global Assessment (PGA) score [1, 7]: improves in comparison to baseline
- Rectal bleeding [1, 7]: reduces
